≈ marks a conversion by molar mass, not a printed value. Entries after “also recorded” stand apart in the source; their conditions may differ. Where two headings read alike, the source gives them in different places.
Columns and labels:
Salmonella (CVCC 3377) = test: Growth kinetics curve; conditions: 1/2 × to 4 × MIC
Proteus (CMCC (B) 49027) [1] = test: Growth kinetics curve; type: cell-based; conditions: 1/2 × to 4 × MIC
E. coli (ATCC 25922) [2] = test: Multipassage resistance study (continuous induction); conditions: after multipassage induction
MRSA (BNCC 337371) = test: Minimum inhibitory concentration (MIC); type: cell-based, Staphylococcus aureus
H. parasuis (ATCC 19417) = test: Minimum inhibitory concentration (MIC); type: cell-based
Experimental: (§1) The test strains were inoculated on the corresponding solid medium and incubated overnight at 37°C. A single colony was picked from the medium and inoculated into Luria Broth (LB), and then incubated overnight at 37°C with shaking at 220 rpm. The bacterial suspension was diluted to 0.5 McFarland turbidity with Mueller Hinton broth (MHB), and then dilute 100 times for later use. Halicin was added to the 96-well plate, and diluted it to concentrations of 128, 64, 32, 16, 8, 4, 2, 1, 0.5, 0.25, 0.125, and 0 μg/mL by gradient. The 96-well plate was incubated at 37°C for 16 h, followed by observing and recording the results. The MIC was determined as the concentration at which there was no visible colony growth was observed.

S. flexneri (CMCC 51572) = test: Minimum inhibitory concentration (MIC); type: cell-based
Experimental: as §1

[3] = system: Streptococcus suis (ATCC 43765); test: Minimum inhibitory concentration (MIC); type: cell-based
Experimental: as §1

Proteus (CMCC (B) 49027) [4] = test: Minimum inhibitory concentration (MIC); type: cell-based
Experimental: as §1

[5] = system: clinical isolates of C. perfringens strains; type: cell-based, Clostridium perfringens
[6] = system: K. pneumoniae (ATCC 4352); test: Minimum inhibitory concentration (MIC); type: cell-based, Klebsiella pneumoniae
Experimental: as §1

[7] = system: bone marrow polychromatic erythrocytes; test: Micronucleus experiment of mammalian bone marrow cells
rats = test: 90-Day subchronic toxicity assay
S. aureus (ATCC 29213) = test: Growth kinetics curve; type: cell-based, Staphylococcus aureus
E. coli (ATCC 25922) [8] = test: Minimum inhibitory concentration (MIC); type: cell-based, Escherichia coli
Experimental: as §1

MRSA (ATCC 43300) = test: Minimum inhibitory concentration (MIC); type: cell-based, Staphylococcus aureus
[9] = system: other bacteria (except Bacillus subtilis and Pseudomonas aeruginosa); test: MIC, panel of Table 1 as summarised in the text; type: cell-based; conditions: bacteria of Table 1 except Bacillus subtilis and Pseudomonas aeruginosa
Mouse spermatozoa = conditions: for Abnormal ratio (%) / Number of sperm abnormality: male ICR mice, oral; for Number of sperm abnormality: of 5 × 1,000 sperms observed
B. subtilis (ATCC 66333) = test: Minimum inhibitory concentration (MIC); type: cell-based, Bacillus subtilis
Experimental: as §1

zebrafish embryos = test: Zebrafish embryonic malformation study; type: in vivo; conditions: up to 4 μM; 24, 48 and 72 h after fertilization
Experimental: For embryonic malformation studies, groups of 20 zebrafish embryos each were treated with halicin. The concentrations of the drug were set at 4, 2, 1, and 0.5 μM, in accordance with established protocols for zebrafish embryo acute toxicity test. Observations were conducted at 24, 48, and 72 h after fertilization using a microscope. The embryonic assessment focused on six specific teratogenic endpoints: pericardial edema, yolk sac edema, cardiac malformations, morphological body shape deformities, tail deformities, and craniofacial anomalies, as well as otolith abnormalities. To minimize the impact of random variability, these experiments were performed in triplicate ([OECD, 1998]).

[10] = system: Clostridium perfringens Type A; type: in vivo, BALB/c mice; conditions: for survival of infected mice: 1 h after C. perfringens challenge
[11] = Female mice, High-does (1009.1) mg/kg
[12] = Female mice, Low-does (252.3) mg/kg
[13] = Female mice, Medium-does (504.6) mg/kg
[14] = Male mice, High-does (1009.1) mg/kg
[15] = Male mice, Low-does (252.3) mg/kg
[16] = Male mice, Medium-does (504.6) mg/kg

Compound: Nc1nnc(Sc2ncc([N+](=O)[O-])s2)s1 [halicin]
- growth in growth kinetics curve assay (Salmonella (CVCC 3377)): completely inhibited
- growth in growth kinetics curve assay (Proteus (CMCC (B) 49027) [1]): completely inhibited
- MIC of ECR (E. coli ATCC 25922 resistant strains) (E. coli (ATCC 25922) [2]): 32 µg/mL
- MIC (MRSA (BNCC 337371)): 8 µg/mL (≈ 30.6 µM)
- MIC (H. parasuis (ATCC 19417)): 8 µg/mL (≈ 30.6 µM)
- MIC (S. flexneri (CMCC 51572)): 8 µg/mL (≈ 30.6 µM)
- MIC [3]: 4 µg/mL (≈ 15.3 µM)
- MIC (Proteus (CMCC (B) 49027) [4]): 8 µg/mL (≈ 30.6 µM)
- MIC ([5]; clinical isolate S049, Clostridium perfringens Cp001): 4 µg/mL (≈ 15.3 µM)
- MIC ([5]; clinical isolate S050, Clostridium perfringens Cp002): 4 µg/mL (≈ 15.3 µM)
- MIC ([5]; clinical isolate S051, Clostridium perfringens Cp003): 4 µg/mL (≈ 15.3 µM)
- MIC ([5]; clinical isolate S052, Clostridium perfringens Cp004): 8 µg/mL (≈ 30.6 µM)
- MIC ([5]; clinical isolate S053, Clostridium perfringens Cp005): 8 µg/mL (≈ 30.6 µM)
- MIC ([5]; clinical isolate S054, Clostridium perfringens Cp006): 8 µg/mL (≈ 30.6 µM)
- MIC ([5]; clinical isolate S055, Clostridium perfringens Cp007): 16 µg/mL (≈ 61.2 µM)
- MIC ([5]; clinical isolate S056, Clostridium perfringens Cp008): 0.25 µg/mL (≈ 0.957 µM)
- MIC ([5]; clinical isolate S057, Clostridium perfringens Cp009): 0.25 µg/mL (≈ 0.957 µM)
- MIC ([5]; clinical isolate S058, Clostridium perfringens Cp010): 0.25 µg/mL (≈ 0.957 µM)
- MIC [6]: 8 µg/mL (≈ 30.6 µM)
- PCE micronucleus (‰) [7, 11]: 2.2 ± 0.8 ‰
- PCE/RBC [7, 11]: 0.72 ± 0.08
- PCE micronucleus (‰) [7, 12]: 1.2 ± 0.4 ‰
- PCE/RBC [7, 12]: 1.09 ± 0.06
- PCE micronucleus (‰) [7, 13]: 0.8 ± 0.4 ‰
- PCE/RBC [7, 13]: 1.06 ± 0.07
- PCE micronucleus (‰) [7, 14]: 0.8 ± 0.8 ‰
- PCE/RBC [7, 14]: 0.76 ± 0.03
- PCE micronucleus (‰) [7, 15]: 0.6 ± 0.5 ‰
- PCE/RBC [7, 15]: 1.07 ± 0.09
- PCE micronucleus (‰) [7, 16]: 1 ± 0.7 ‰
- PCE/RBC [7, 16]: 1.08 ± 0.11
- micronucleus ratio compared with the negative control group ([7]; high-dose (1009.1 mg/kg), p < 0.01): significant difference
- micronucleus ratio compared with the negative control group ([7]; medium (504.6 mg/kg) and low-dose (252.3 mg/kg), p > 0.05): no significant difference
- water consumption and mental states (rats; all dosage groups): no significant changes
- body weight of female rats compared with the control group (rats; all halicin treatment groups, 90 days, p > 0.05): no significant difference
- mortality (rats; any experimental group (50.5-201.8 mg/kg), 90 days): No mortality
- weight of organs compared with the control group (rats; end of the experiment, all treatment groups, p > 0.05): no significant difference
- maximum safe concentration (rats; from the safety assessment): 50.5 mg/kg
- kidney findings (autopsy, HE sections) (rats; high dose 201.8 mg/kg, 201.8 mg/kg): slight renal inflammation; also recorded: kidney lesions
- body weight of male rats compared with the control group (rats; high-dose group (201.8 mg/kg), oral, 90 days, p < 0.05): significantly lower
- serum ALT and AST levels compared with the control group (rats; high-dose, p < 0.01): significantly reduced
- diet compared with the control group (rats; low-dose group (50.5 mg/kg), p > 0.05): No significant differences
- dosages with good safety and tolerability (rats; rats, oral, 90 days): below 50.5 mg/kg
- growth in growth kinetics curve assay (S. aureus (ATCC 29213); 1 × MIC): started to grow rapidly after 16 h
- growth in growth kinetics curve assay (S. aureus (ATCC 29213); 4 × MIC, after 20 h): still proliferated significantly
- type of antibacterial action (S. aureus (ATCC 29213); against S. aureus): bacteriostatic rather than a bactericidal agent
- MIC (E. coli (ATCC 25922) [8]): 8 µg/mL (≈ 30.6 µM)
- MIC (MRSA (ATCC 43300)): 8 µg/mL (≈ 30.6 µM)
- MIC against other bacteria [9]: less than 8 μg/mL
- proportions of abnormal sperm compared with the negative control group (Mouse spermatozoa; 1009.1, 504.6 and 252.3 mg/kg, p > 0.05): not significantly different
- Abnormal sperms counted ratio (%): Amorphous (Mouse spermatozoa; High-dose (1009.1) mg/kg): 23.6 ± 12.44%
- Abnormal sperms counted ratio (%): Banana shape (Mouse spermatozoa; High-dose (1009.1) mg/kg): 42.52 ± 12.57%
- Abnormal sperms counted ratio (%): Kinks tail (Mouse spermatozoa; High-dose (1009.1) mg/kg): 3.05 ± 2.79%
- Abnormal sperms counted ratio (%): Large round head (Mouse spermatozoa; High-dose (1009.1) mg/kg): 9.07 ± 4.02%
- Abnormal sperms counted ratio (%): No hook (Mouse spermatozoa; High-dose (1009.1) mg/kg): 15.6 ± 5.5%
- Abnormal sperms counted ratio (%): Two head (Mouse spermatozoa; High-dose (1009.1) mg/kg): 3.05 ± 2.79%
- Abnormal sperms counted ratio (%): Two tail (Mouse spermatozoa; High-dose (1009.1) mg/kg): 3.11 ± 2.84%
- Abnormal sperms counted ratio (%): Amorphous (Mouse spermatozoa; Low-dose (252.3) mg/kg): 39.81 ± 3%
- Abnormal sperms counted ratio (%): Banana shape (Mouse spermatozoa; Low-dose (252.3) mg/kg): 35.98 ± 3.94%
- Abnormal sperms counted ratio (%): Kinks tail (Mouse spermatozoa; Low-dose (252.3) mg/kg): 1.18 ± 2.63%
- Abnormal sperms counted ratio (%): Large round head (Mouse spermatozoa; Low-dose (252.3) mg/kg): 3.92 ± 3.58%
- Abnormal sperms counted ratio (%): No hook (Mouse spermatozoa; Low-dose (252.3) mg/kg): 16.61 ± 3.11%
- Abnormal sperms counted ratio (%): Two head (Mouse spermatozoa; Low-dose (252.3) mg/kg): 1.33 ± 2.98%
- Abnormal sperms counted ratio (%): Two tail (Mouse spermatozoa; Low-dose (252.3) mg/kg): 1.18 ± 2.63%
- Abnormal sperms counted ratio (%): Amorphous (Mouse spermatozoa; Medium-dose (504.6) mg/kg): 29.69 ± 2.67%
- Abnormal sperms counted ratio (%): Banana shape (Mouse spermatozoa; Medium-dose (504.6) mg/kg): 35.81 ± 4.52%
- Abnormal sperms counted ratio (%): Kinks tail (Mouse spermatozoa; Medium-dose (504.6) mg/kg): 2.44 ± 3.37%
- Abnormal sperms counted ratio (%): Large round head (Mouse spermatozoa; Medium-dose (504.6) mg/kg): 11.96 ± 0.96%
- Abnormal sperms counted ratio (%): No hook (Mouse spermatozoa; Medium-dose (504.6) mg/kg): 16.7 ± 2.71%
- Abnormal sperms counted ratio (%): Two head (Mouse spermatozoa; Medium-dose (504.6) mg/kg): 2.22 ± 3.04%
- Abnormal sperms counted ratio (%): Two tail (Mouse spermatozoa; Medium-dose (504.6) mg/kg): 1.18 ± 2.63%
- Abnormal ratio (%) (Mouse spermatozoa; High-dose (1009.1) mg/kg): 2.12 ± 0.38%
- Number of sperm abnormality (Mouse spermatozoa; High-dose (1009.1) mg/kg): 110
- Abnormal ratio (%) (Mouse spermatozoa; Low-dose (252.3) mg/kg): 1.56 ± 0.09%
- Number of sperm abnormality (Mouse spermatozoa; Low-dose (252.3) mg/kg): 78
- Abnormal ratio (%) (Mouse spermatozoa; Medium-dose (504.6) mg/kg): 1.68 ± 0.13%
- Number of sperm abnormality (Mouse spermatozoa; Medium-dose (504.6) mg/kg): 84
- MIC (B. subtilis (ATCC 66333)): 128 µg/mL (≈ 490 µM)
- teratogenic effects on the embryos (zebrafish embryos): no significant teratogenicity; also recorded: no any significant teratogenic effects
- survival of infected mice ([10]; 5 mg/kg halicin): more than 80%
- survival of infected mice ([10]; 10 mg/kg halicin): no deaths occurred; also recorded: All mice in the 10 mg/kg halicin group survived
- therapeutic effect in infected mice ([10]; dose of 5 mg/kg): good therapeutic effects
- efficacy compared with 10 mg/kg metronidazole ([10]; intestinal anaerobic bacteria infection in mice): much more effective
